*1 amine or outer side, *2 acyl side, *3 side chain or, on linkers, in order; H or OH if unused. Where a SMILES comes first, the peptide text is derived from it. Bridges are numbered along the chain shown (N, C = ends). [ ]: non-standard residue; d: D form. The star is where a group is joined. ξ: configuration not given here. Phe(3-CF3) = N[C@@H](Cc1cccc(C(F)(F)F)c1)C(=O)O; Phe(4-COOH) = N[C@@H](Cc1ccc(C(=O)O)cc1)C(=O)O; Bip = N[C@@H](Cc1ccc(-c2ccccc2)cc1)C(=O)O; Phe(3-Me) = Cc1cccc(C[C@H](N)C(=O)O)c1; γGlu = O=C(O)[C@H](CCC(=O)[*:2])N[*:1]; Abu(3S-NH2) = C[C@H](N)[C@H](N)C(=O)O; NH(CH2)12COOH = O=C(O)CCCCCCCCCCCCN*; Val(3-OH) = CC(C)(O)[C@H](N)C(=O)O; hArg = N=C(N)NCCCC[C@H](N)C(=O)O; 3Pal = N[C@@H](Cc1cccnc1)C(=O)O; Cha = N[C@@H](CC1CCCCC1)C(=O)O; Cit = NC(=O)NCCC[C@H](N)C(=O)O; Thr(3ξ) = CC(O)[C@H](N)C(=O)O; Carboxymethyl = O=C(O)C*; NMeA = CN[C@@H](C)C(=O)O; Orn = NCCC[C@H](N)C(=O)O; Aun = NCCCCCCCCCCC(=O)O; Dab = NCC[C@H](N)C(=O)O; AEEA = NCCOCCOCC(=O)O
Biological target: T1, PD-1/PD-L1 interaction (PE-labeled human PD-L1-Ig binding to Jurkat cell line over-expressing human PD-1) (Homo sapiens, UniProt Q15116)
T1 construct: expressed in transfected cells; host or cells: Jurkat
T1 sequence (Q15116 25-288): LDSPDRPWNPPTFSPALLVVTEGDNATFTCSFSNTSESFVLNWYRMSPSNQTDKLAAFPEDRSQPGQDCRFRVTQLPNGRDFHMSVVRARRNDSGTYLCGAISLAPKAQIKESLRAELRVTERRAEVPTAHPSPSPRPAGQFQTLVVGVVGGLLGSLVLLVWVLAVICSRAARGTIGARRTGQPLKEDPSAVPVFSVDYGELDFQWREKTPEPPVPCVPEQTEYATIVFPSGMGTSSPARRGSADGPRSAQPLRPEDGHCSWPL
Assay: Jurkat-PD-1 Cell Binding High-Content Screening Assay (CBA)
Conditions: Jurkat-hPD-1 cells, PE-labeled PD-L1-Ig 20 nM final; read-out: Jurkat HPD1 PDL1 IC50
Procedure, shortened: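 Read-out: high-content imaging of cell-bound PE fluorescence, with Hoechst 33342 nuclear counterstain after paraformaldehyde fixation. Before labeled ligand (20 nM final, 1 h) was added, compound sat on the cells for 2 h at 37 °C in DMEM/10% FCS.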

| SMILES | IC50 [nM] |
| --- | --- |
| CC(C)C[C@H]1NC(=O)[C@H](C)N(C)C(=O)[C@H](CCC(N)=O)NC(=O)[C@H](Cc2ccc(-c3ccccc3)cc2)NC(=O)[C@H](Cc2ccc(C(=O)O)cc2)NC(=O)[C@H](Cc2cccc(C(F)(F)F)c2)NC(=O)[C@H](CC(=O)O)NC(=O)[C@H](Cc2ccc(OCC(=O)O)cc2)NC(=O)[C@H]([C@H](C)N)NC(=O)CSC[C@@H](C(=O)N[C@@H](CCN)C(=O)NCCOCCOCC(=O)N[C@@H](CCC(=O)NCCOCCOCC(=O)NCCCCCCCCCCCCC(=O)O)C(=O)O)NC(=O)[C@H](CCC(=O)O)NC(=O)[C@H](C(C)C)NC(=O)[C@H](CC2CCCCC2)NC(=O)[C@H](CCN)NC1=O [Example 1200] ({CH2CO}-[Abu(3S-NH2)]Y(Carboxymethyl)D[Phe(3-CF3)][Phe(4-COOH)][Bip]Q[NMeA][dL][Dab][Cha]VEC[Dab][AEEA][γGlu][AEEA]-{NH(CH2)12COOH}; thioether N-14) | 28.1 |
| CC(C)C[C@@H]1NC(=O)[C@H](Cc2c[nH]c3ccccc23)NC(=O)[C@H](CC(=O)O)NC(=O)[C@H](Cc2ccc(OCC(=O)O)cc2)NC(=O)[C@H](C(C)O)NC(=O)CSC[C@@H](C(=O)NCCOCCOCC(=O)NCCCCCCCCCCC(=O)O)NC(=O)[C@H](CO)NC(=O)[C@H](C(C)(C)O)NC(=O)[C@H](CC2CCCCC2)NC(=O)[C@H](CCC(=O)O)NC(=O)[C@@H](CC(C)C)NC(=O)[C@H](C)N(C)C(=O)[C@H](C(C)C)NC(=O)[C@H](Cc2ccc(-c3ccccc3)cc2)NC1=O (stereo partly drawn) [Example 2448] ({CH2CO}-[Thr(3ξ)]Y(Carboxymethyl)DWL[Bip]V[NMeA][dL]E[Cha][Val(3-OH)]SC[AEEA][Aun]-OH; thioether N-14) | 128 |
| CC(C)C[C@@H]1NC(=O)[C@H](Cc2c[nH]c3ccccc23)NC(=O)[C@H](CC(=O)O)NC(=O)[C@H](Cc2ccc(C(=O)O)cc2)NC(=O)[C@H](Cc2ccc(OCC(=O)O)cc2)NC(=O)CSC[C@@H](C(=O)N[C@@H](CCN)C(=O)NCCOCCOCC(=O)NCCCCCCCCCCC(=O)O)NC(=O)[C@H](CCCCN)NC(=O)[C@H](C(C)C)NC(=O)[C@H](CC2CCCCC2)NC(=O)[C@H](CCN)NC(=O)[C@@H](CC(C)C)NC(=O)[C@H](C)N(C)C(=O)[C@H](C(C)C)NC(=O)[C@H](Cc2ccc(-c3ccccc3)cc2)NC1=O [Example 2192] ({CH2CO}-Y(Carboxymethyl)[Phe(4-COOH)]DWL[Bip]V[NMeA][dL][Dab][Cha]VKC[Dab][AEEA][Aun]-OH; thioether N-14) | 7.6 |
| CC(C)C[C@@H]1NC(=O)[C@H](Cc2c[nH]c3ccccc23)NC(=O)[C@H](CC(=O)O)NC(=O)[C@H](Cc2ccc(OCC(=O)O)cc2)NC(=O)[C@H](Cc2ccc(OCC(=O)O)cc2)NC(=O)CSC[C@@H](C(=O)N[C@@H](CCN)C(=O)NCCOCCOCC(=O)NCCCCCCCCCCC(=O)O)NC(=O)[C@H](CO)NC(=O)[C@H](C(C)C)NC(=O)[C@H](CC(C)C)NC(=O)[C@H](CCN)NC(=O)[C@@H](CC(C)C)NC(=O)[C@H](C)N(C)C(=O)[C@H](C(C)C)NC(=O)[C@H](Cc2ccc(-c3ccccc3)cc2)NC1=O [Example 2039] ({CH2CO}-Y(Carboxymethyl)Y(Carboxymethyl)DWL[Bip]V[NMeA][dL][Dab]LVSC[Dab][AEEA][Aun]-OH; thioether N-14) | 879 |
| CC(C)C[C@@H]1NC(=O)[C@H](Cc2c[nH]c3ccccc23)NC(=O)[C@H](CC(=O)O)NC(=O)[C@H](Cc2ccc(OCC(=O)O)cc2)NC(=O)[C@H](CCCCNC(=N)N)NC(=O)CSC[C@@H](C(=O)NCC(=O)NCCOCCOCC(=O)N[C@@H](CCCNC(N)=O)C(=O)NCCCCCCCCCCC(=O)O)NC(=O)[C@H](CCCNC(N)=O)NC(=O)[C@H](C(C)C)NC(=O)[C@H](CC2CCCCC2)NC(=O)[C@H](CCN)NC(=O)[C@@H](CC(C)C)NC(=O)[C@H](C)N(C)C(=O)[C@H](C(C)C)NC(=O)[C@H](Cc2ccc(-c3ccccc3)cc2)NC1=O [Example 2182] ({CH2CO}-[hArg]Y(Carboxymethyl)DWL[Bip]V[NMeA][dL][Dab][Cha]V[Cit]CG[AEEA][Cit][Aun]-OH; thioether N-14) | 12.3 |
| Cc1cccc(C[C@@H]2NC(=O)[C@H](CC(=O)O)NC(=O)[C@H](Cc3ccc(OCC(=O)O)cc3)NC(=O)[C@H]([C@@H](C)O)NC(=O)CSC[C@@H](C(=O)N[C@H](C)C(=O)NCCCCCCCCCCC(=O)O)NC(=O)[C@H](CCC(=O)O)NC(=O)[C@H](C(C)(C)O)NC(=O)[C@H](CC3CCCCC3)NC(=O)[C@H](CCN)NC(=O)[C@@H](CC(C)C)NC(=O)[C@H](C)N(C)C(=O)[C@H](Cc3ccc(OCC(=O)O)cc3)NC(=O)[C@H](Cc3ccc(-c4ccccc4)cc3)NC(=O)[C@H](Cc3ccc(OCC(=O)O)cc3)NC2=O)c1 [Example 1421] ({CH2CO}-TY(Carboxymethyl)D[Phe(3-Me)]Y(Carboxymethyl)[Bip]Y(Carboxymethyl)[NMeA][dL][Dab][Cha][Val(3-OH)]EC[dA][Aun]-OH; thioether N-14) | 240 |
| Cc1cccc(C[C@@H]2NC(=O)[C@H](CC(=O)O)NC(=O)[C@H](Cc3ccc(C(=O)O)cc3)NC(=O)[C@H](Cc3ccc(OCC(=O)O)cc3)NC(=O)CSC[C@@H](C(=O)NCCCCCCCCCCC(=O)O)NC(=O)[C@H](C(C)O)NC(=O)[C@H](C(C)C)NC(=O)[C@H](CC3CCCCC3)NC(=O)[C@H](CCN)NC(=O)[C@@H](CC(C)C)NC(=O)[C@H](C)N(C)C(=O)[C@H](Cc3ccc(O)cc3)NC(=O)[C@H](Cc3ccc(-c4ccccc4)cc3)NC(=O)[C@H](CC(C)C)NC2=O)c1 (stereo partly drawn) [Example 2329] ({CH2CO}-Y(Carboxymethyl)[Phe(4-COOH)]D[Phe(3-Me)]L[Bip]Y[NMeA][dL][Dab][Cha]V[Thr(3ξ)]C[Aun]-OH; thioether N-14) | 195 |
| CC(C)C[C@@H]1NC(=O)[C@H](Cc2c[nH]c3ccccc23)NC(=O)[C@H](CC(=O)O)NC(=O)[C@H](Cc2ccc(OCC(=O)O)cc2)NC(=O)[C@H](Cc2ccc(OCC(=O)O)cc2)NC(=O)CSC[C@@H](C(=O)NCCOCCOCC(=O)NCCCCCCCCCCC(=O)O)NC(=O)[C@H](CO)NC(=O)[C@H](Cc2cnc[nH]2)NC(=O)[C@H](CC2CCCCC2)NC(=O)[C@H](CCN)NC(=O)[C@@H](CC(C)C)NC(=O)[C@H](C)N(C)C(=O)[C@H](C(C)C)NC(=O)[C@H](Cc2ccc(-c3ccccc3)cc2)NC1=O [Example 2445] ({CH2CO}-Y(Carboxymethyl)Y(Carboxymethyl)DWL[Bip]V[NMeA][dL][Dab][Cha]HSC[AEEA][Aun]-OH; thioether N-14) | 46.5 |
| CC(C)C[C@H]1NC(=O)[C@H](C)N(C)C(=O)[C@H](Cc2ccc(OCC(=O)O)cc2)NC(=O)[C@H](Cc2ccc(-c3ccccc3)cc2)NC(=O)[C@H](Cc2ccc(OCC(=O)O)cc2)NC(=O)[C@H](Cc2c[nH]c3ccccc23)NC(=O)[C@H](CC(=O)O)NC(=O)[C@H](Cc2ccc(OCC(=O)O)cc2)NC(=O)[C@H]([C@@H](C)O)NC(=O)CSC[C@@H](C(=O)N[C@@H](CCCN)C(=O)NCCOCCOCC(=O)NCCCCCCCCCCC(=O)O)NC(=O)[C@H]([C@@H](C)O)NC(=O)[C@H](C(C)C)NC(=O)[C@H](CC2CCCCC2)NC(=O)[C@H](CCN)NC1=O [Example 1394] ({CH2CO}-TY(Carboxymethyl)DWY(Carboxymethyl)[Bip]Y(Carboxymethyl)[NMeA][dL][Dab][Cha]VTC[Orn][AEEA][Aun]-OH; thioether N-14) | 143 |
| Cc1cccc(C[C@@H]2NC(=O)[C@H](CC(=O)O)NC(=O)[C@H](Cc3ccc(OCC(=O)O)cc3)NC(=O)[C@H](Cc3cccnc3)NC(=O)CSC[C@@H](C(=O)N[C@@H](CCN)C(=O)NCCCCCCCCCCC(=O)O)NC(=O)[C@H](CO)NC(=O)[C@H](C(C)C)NC(=O)[C@H](CC3CCCCC3)NC(=O)[C@H](CCN)NC(=O)[C@@H](CC(C)C)NC(=O)[C@H](C)N(C)C(=O)[C@H](Cc3ccc(O)cc3)NC(=O)[C@H](Cc3ccc(-c4ccccc4)cc3)NC(=O)[C@H](Cc3ccc(OCC(=O)O)cc3)NC2=O)c1 [Example 1278] ({CH2CO}-[3Pal]Y(Carboxymethyl)D[Phe(3-Me)]Y(Carboxymethyl)[Bip]Y[NMeA][dL][Dab][Cha]VSC[Dab][Aun]-OH; thioether N-14) | 33.4 |
| CC(=O)NCCCC[C@@H]1NC(=O)[C@H](Cc2ccc(-c3ccccc3)cc2)NC(=O)[C@H](C(C)C)NC(=O)[C@H](Cc2c[nH]c3ccccc23)NC(=O)[C@H](CC(=O)O)NC(=O)[C@H](Cc2ccc(OCC(=O)O)cc2)NC(=O)[C@H](Cc2ccc(OCC(=O)O)cc2)NC(=O)CSC[C@@H](C(=O)NCCOCCOCC(=O)NCCCCCCCCCCC(=O)O)NC(=O)[C@H](C(C)O)NC(=O)[C@H](C(C)C)NC(=O)[C@H](CC2CCCCC2)NC(=O)[C@H](CCN)NC(=O)[C@@H](CC(C)C)NC(=O)[C@H](C)N(C)C1=O (stereo partly drawn) [Example 2321] ({CH2CO}-Y(Carboxymethyl)Y(Carboxymethyl)DWV[Bip]K(Ac)[NMeA][dL][Dab][Cha]V[Thr(3ξ)]C[AEEA][Aun]-OH; thioether N-14) | 5.8 |

Same assay, conditions: PE-labeled PD-L1-Ig 20 nM final, Jurkat-hPD-1 cells; read-out: Jurkat HPD1 PDL1 IC50

| SMILES | IC50 [nM] |
| --- | --- |
| CC(C)C[C@@H]1NC(=O)[C@H](Cc2c[nH]c3ccccc23)NC(=O)[C@H](CC(=O)O)NC(=O)[C@H](Cc2ccc(OCC(=O)O)cc2)NC(=O)[C@H](C(C)O)NC(=O)CSC[C@@H](C(=O)NCCOCCOCC(=O)NCCCCCCCCCCC(=O)O)NC(=O)[C@H](C(C)O)NC(=O)[C@H](C(C)C)NC(=O)[C@H](CC2CCCCC2)NC(=O)[C@H](CCN)NC(=O)[C@@H](CC(C)C)NC(=O)[C@H](C)N(C)C(=O)[C@H](CCCNC(N)=O)NC(=O)[C@H](Cc2ccc(-c3ccccc3)cc2)NC1=O (stereo partly drawn) [Example 2437] ({CH2CO}-[Thr(3ξ)]Y(Carboxymethyl)DWL[Bip][Cit][NMeA][dL][Dab][Cha]V[Thr(3ξ)]C[AEEA][Aun]-OH; thioether N-14) | 34.9 |
